Results from US5932217A, “Peptides which inhibit adhesion between leukocytes and endothelial cells” (priority 1994, dated 1999).

Legend:
[1] = system: human umbilical vein endothelial cells; assay: Adherence of neutrophils to cultured activated endothelial cells; type: cell-based
Method: Human umbilical vein endothelial cells (HUVEC, first passage, Clonetics, San Diego, Calif.) were subcultured at confluence into Terasaki tissue culture wells. After 24 hours, confluent monolayers were used for adherence assays. Monolayers were stimulated with 10 ng/ml TNF alpha (Boehringer Mannheim, Indianapolis, Ind.) at 37° C. for four hours. 30 μl of human neutrophils (10^6 /ml) were labeled with fluorescein by the method of Lo et al. (1991), J. Exp. Med. 173 1493-1500, and preincubated for 15 minutes at 37° C. with 20 μl of peptides (0.5 mM in HAP) or HAP (phosphate buffered saline containing 0.5 mg/ml human serum albumin, 3 mM glucose, and 0.3 U/ml aprotinin) as a control buffer. For some experiments, endothelial cells ere pretreated from 10 minutes with Factor X or antibodies against Factor X receptor (EPR-1; Altieri et al. (1990), J. Immunol. 145, 246-253) 12H1 and 9D4 (obtained from Dr. D. Altieri, Scripps Research Institute, LaJolla, Calif.) and then washed. Neutrophils were allowed to adhere to the monolayer for 15 mins. at 37° C. and unbound cells were removed by submersion of the plate in PBS buffer. The number of adherent neutrophils was counted in a 40× microscope field and expressed as a percentage of adherence in control wells with neutrophils treated with HAP buffer alone. The mAb IB4 against CD18 (50 μg/ml; Merck Inc., Rahway, N.J.) served as a positive control.
The ability of FHA peptides and anti-CD18 or anti-Factor X receptor antibodies to interact cooperatively to inhibit neutrophil adherence to endothelial cells was assessed by measuring neutrophil adherence to endothelial cells in the presence of antibody as well as antibody plus peptide. Anti-CD18 mAb IB4 was added to leukocytes at 10 μg/ml 10 min before the assay. Anti-Factor X receptor mAb 12H1 (10 μl of ascites) or 9D4 (10 μg/ml) were added to the endothelial cell monolayers 10 min before the assay. The peptides were added at 5 μg/ml. The results are shown in Table 8 where the numerical values are in % of control binding.
The procedures for determining the neutrophil adherence to cultured endothelial cells and the transendothelial migration of neutrophils were identical with those of Example 9. Control values were the same as those shown in Example 9.

[2] = system: rabbits challenged intracisternally with pneumococcus strain R6; assay: Rabbit model for meningitis, intravenous FHA or peptides; type: in vivo; conditions: for Lactate / Protein: CSF at 6 hours
Method: The rabbit model was performed according to an established protocol. Specific pathogen free, New Zealand white rabbits (2 kg; Hare Marland, Nutley, N.J.) were anesthetized with valium (2.5 mg/kg, subcutaneously, Hoffman-LaRoche, Nutley, N.J.), ketamine (35 mg/kg, intramuscularly, Aveco, Fort Dodge, Iowa) and xylazine (5 mg/kg, intramuscularly, Miles Laboratories, Shawnee, Kans.) and a helmet of dental acrylic was affixed to the calvarium. Twenty four hours later, the rabbits were anesthetized with ethyl carbamate (1.75 g/kg; Aldrich Chemical Co., Milwaukee, Wis.) and pentobarbital (15 mg/kg; Abbott Laboratories, Abbott Park, Ill.) and placed in a stereotaxic frame. A spinal needle was introduced into the cisterna magna and 300 μl of CSF was withdrawn. The animals were challenged intracisternally with 10^8 heat killed, unencapsulated pneumococcus strain R6 introduced in 200 μl of saline (time 0). One hour later, animals were treated with peptides dissolved in 1 ml of saline by intravenous injection into the right marginal ear vein. The concentration of FHA was 0.1 μM and that of the FHA Ia, Factor X II, and scrambled FHA II peptides was 10 μM. For the acetyl-FHA II, acetyl/amide-FHA II, dimer of FHA II and trimer of FHA II peptides, the concentration was 10^-3 μM. The concentration of FHA II is given in the results section. Samples of CSF were withdrawn at hourly intervals after pneumococcal inoculation and leukocyte density was measured using a cell counter (Coulter Electronics Inc., Hialeah, Fla.). CSF samples were centrifuged at 10,000×g for 5 minutes and the supernatant was stored at -70° C. until assayed for protein concentration using the bicinchoninic acid method (BCA Kit, Pierce Chemical Co., Rockford Ill.) and for lactate concentration (Lactate Detection Kit, Sigma, St. Louis, Mo.). Statistically significant differences between treatments were determined by a one way analysis of variance test.
The anti-inflammatory effects of the administered peptides were assessed in the rabbit model for meningitis by the procedures described in Example 10. The animals received 1 ml of 1 uM peptide intravenously. In a slight departure from the protocol described in Example 10, samples of blood were drawn from the left marginal ear vein 30 minutes after the administration of the peptides to determine peripheral leukocyte concentrations.

Row | Substance | inhibition of neutrophil adherence to stimulated HUVEC, comparison in words ([1]; peptides 0.5 mM, FIG. 17) | leukocytes/μl CSF ([2]; 6 hours post-pneumococcal challenge, 10 nmoles i.v.) [cells/μl] | Lactate ([2]; FHA 0.1 μM, peptides 10 μM) [mg/100 ml] | Protein ([2]; FHA 0.1 μM, peptides 10 μM) [mg/ml CSF] | concentration at which loss of activity (≤20% inhibition) occurred [1] | maximal inhibition of neutrophil attachment ([1]; FIG. 25B) | inhibition of adherence of human neutrophils to cultured endothelial cells ([1]; Native FHA 50 ug/ml (0.2 uM), FHA peptide C 1 mg/ml (0.2 mM)) [%] | reduction of neutrophil adherence to stimulated HUVEC ([1]; native FHA 25 μg/ml=0.3 μM, mAb IB4 50 μg/ml) [%] | Total protein in CSF ([2]; 6 hours after intracisternal inoculation of pneumococci) [mg/mL] | mean leukocyte concentration/μl CSF ([2]; 7 hours after challenge, 10^-3 μM i.v.) | mean leukocyte concentration/μl CSF ([2]; 7 hours after challenge, FHA 0.1 μM (25 μg per 2 kg), peptides 10 μM, i.v.) | mean leukocyte density/μl CSF ([2]; 7 hours after challenge, FHA 0.1 μM (25 μg/animal), peptides 1 ml of 1 uM i.v.) [cells/μl CSF] | Total protein in CSF ([2]; 7 hours after intracisternal inoculation of pneumococci) [mg/mL] | reduction of CSF leukocytosis ([2]; 7 hours, FHA 0.1 μM, peptides 10 μM) [%] | anti-inflammatory activity at reduced concentration ([2]; concentrations reduced from 10 to 0.1 μM, FIG. 21) | inflammation, numbers of leukocytes in the cerebrospinal fluid ([2]; intravenous, FIG. 5)
1 | Ac-ETKEVDG-NH2 [Acetyl/Amide-FHA II] | significantly enhanced | 3011±684 | 24.3 ± 3.2 | 1.2 ± 0.6 | – | – | – | – | – | – | – | – | – | – | – | –
2 | Filamentous hemagglutinin [native FHA] | – | – | 25.0 ± 5.3 | 1.3 ± 0.3 | 10^-3 μM | ~ 50% | 51±7 | 51±8 | 1.70 ± 0.33 | ineffective | 2096±450 /μl CSF | 2096±450 | 1.86 ± 0.76 | > 60 | more potent anti-inflammatory activity than the corresponding Factor X peptide II | decreases inflammation
